The values that follow come from PubChem BioAssay AID624359 (Broad Institute, 2012).

Inconclusive results are not listed. Calls of active or inactive are those of the source.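 The calls were made as follows: active = fitted curve reaches 35% inhibition at a concentration up to twice the top valid dose; inconclusive = no clear call, values can overlap the other calls; inactive = the rest, including signal moving the opposite way.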

Assay [1] in a line: inhibitors of LMP1-driven NF-kB reporter, dose response, cell-based, EBV LMP1, luciferase, dry powder (AID 624359). As to conditions: HEK293 LMP1 TES2 NF-kB luciferase reporter, 16 h. Background: A reporter such as luciferase makes a cellular process visible.
Assay [2] concerns HEK293 LMP1 TES2 NF-kB luciferase reporter, 16 h. Described as above.

`C[C@@H]1CCCCO[C@@H](CN(C)Cc2ccccc2)[C@H](C)CN([C@H](C)CO)C(=O)c2cc(NC(=O)Nc3ccc4c(c3)OCO4)ccc2O1`: the activity change, negative = inhibition in assay [1] (at 26 µM (top of the series)) is -6.74% (inactive).

For `C[C@H](CO)N1C[C@H](C)[C@@H](CN(C)Cc2ccc(-c3ccccc3)cc2)Oc2ccc(NC(=O)Nc3cccc4ccccc34)cc2CC1=O`, the AC35 in assay [2] is 4.13 µM.

Turning to `C=CCN1Cc2ccccc2[C@@H]2OC(c3ccc(OCCCO)cc3)=N[C@]2(CCC(=O)OC(C)(C)C)C1=O`, the activity change, negative = inhibition in assay [1] (at 26 µM (top of the series)) was 3.78% (inactive). For the compound `C[C@H](CO)N1C[C@H](C)[C@H](CN(C)C(=O)Nc2ccc(C(F)(F)F)cc2)OCCCC[C@H](C)Oc2ccc(NC(=O)Nc3ccc(F)cc3)cc2C1=O`, the AC35 in assay [2] was 16.6 µM.

Consider `C/C(=N\NC(=S)Nc1ccccc1Cl)c1ccccn1`, for which, in assay [1] (at 26 µM (top of the series)), the activity change, negative = inhibition is 51.4% (inactive).

Consider `C[C@@H]1CCCCO[C@H](CN(C)C(=O)c2ccccc2)[C@H](C)CN([C@@H](C)CO)C(=O)c2cc(NC(=O)Nc3ccc(F)cc3)ccc2O1`, for which the activity change, negative = inhibition in assay [1] (at 26 µM (top of the series)) is -13.1% (inactive). Regarding `C/C(=N\NC(=S)N1CCCCC1)c1cccc(C)n1`, the AC35 in assay [2] was 0.492 µM. Consider `CC(=O)Nc1nc(C)c(-c2csc(Nc3ccc(O)cc3)n2)s1`, for which the activity change, negative = inhibition in assay [1] (at 26 µM (top of the series)) is 83.3% (inactive). For the compound `C[C@@H]1CCCCO[C@H](CN(C)C(=O)CCC(F)(F)F)[C@H](C)CN([C@@H](C)CO)C(=O)c2cc(NC(=O)CCC(F)(F)F)ccc2O1`, in assay [1] (at 26 µM (top of the series)), the activity change, negative = inhibition is -12.3% (inactive). For `C[C@H](CO)N1C[C@H](C)[C@@H](CN(C)CC2CC2)OCCCC[C@H](C)Oc2ccc(NC(=O)Nc3cccc4ccccc34)cc2C1=O`, in assay [2], the AC35 is 0.541 µM. `Cc1ccc(S(=O)(=O)Nc2ccc3c(c2)C(=O)N([C@@H](C)CO)C[C@H](C)[C@@H](CN(C)C(=O)CCC(F)(F)F)OCCCC[C@H](C)O3)cc1`: the AC35 in assay [2] is 0.619 µM.

Take `O=C(CCc1ccccc1)NC(c1cccs1)c1cc(Cl)c2cccnc2c1O` (stereo not given): in assay [2], the AC35 was 43.9 µM. Consider `CC1CN(C(=O)CSc2nnc3c4ccccc4n(Cc4cccc(Cl)c4)c3n2)CCN1C(=O)c1ccccc1F` (stereo not given), for which the activity change, negative = inhibition in assay [1] (at 26 µM (top of the series)) was 42.2% (inactive). For the compound `C/C(=N\NC(=S)N1CC2CCC(CC2)C1)c1ccccn1`, the AC35 in assay [2] is 5.42 µM.

For `CNC[C@@H]1Oc2ccc(NS(=O)(=O)c3cn(C)cn3)cc2CC(=O)N([C@H](C)CO)C[C@@H]1C`, the activity change, negative = inhibition in assay [1] (at 26 µM (top of the series)) is 7.33% (inactive). On to `Cc1ccc(NC(=O)C2CCN(S(=O)(=O)c3ccc4c(c3)NC(=O)C(C)S4)CC2)cc1Cl` (stereo not given), for which the AC35 in assay [2] is 4.01 µM.

Regarding `CCC(Sc1nnc2c3ccccc3n(Cc3ccc(Br)cc3)c2n1)C(=O)NCCCN1CCOCC1` (stereo not given), the AC35 in assay [2] was 5.65 µM. Regarding `C/C(=N\NC(=S)N1CCCC1)c1ccccn1`, the AC35 in assay [2] was 0.884 µM. In the case of `CC(C)=CCN(C(=O)C#Cc1ccccc1)[C@H](CO)c1ccccc1`, the AC35 in assay [2] is 3.79 µM. `COc1ccc2nc(Nc3nc(C)c(CCC(C)C)c(=O)[nH]3)nc(C)c2c1`: the activity change, negative = inhibition in assay [1] (at 26 µM (top of the series)) is 42.5% (inactive). Turning to `CSC(=S)N/N=C(\C)c1cccc(C)n1`, in assay [1] (at 26 µM (top of the series)), the activity change, negative = inhibition is 8.74% (inactive). Take `CC12CCC3C(CC=C4CC(O)CCC43CO)C1CCC2OC(=O)c1ccccc1` (stereo not given): the AC35 in assay [2] is 6.56 µM. The same measure, in the same setting: then `Nc1ccn([C@@H]2O[C@H](CO)[C@@H](O)C2O)c(=O)n1` (stereo not given in full), with 27.5 µM; and `COc1ccc2[nH]c(C(=O)N/N=C/c3ccc(O)cc3O)cc2c1`, with 9.11 µM. `Fc1ccc2c(c1)c1nnc(SCCN3CCOCC3)nc1n2Cc1ccccc1`: the AC35 in assay [2] is 10.1 µM. For `CCc1ccc(/C=C2\SC(=S)N(CCCC(=O)Nc3ccccn3)C2=O)cc1`, the activity change, negative = inhibition in assay [1] (at 26 µM (top of the series)) was 9.57% (inactive). As to `c1ccc(Cn2c3ccccc3c3nnc(SCCN4CCCCC4)nc32)cc1`, in assay [2], the AC35 was 11 µM. As for `O=C(CSc1nnc2c3ccccc3n(Cc3ccccc3)c2n1)NCc1ccco1`, the activity change, negative = inhibition in assay [1] (at 26 µM (top of the series)) is 12.9% (inactive). In the case of `C/C(=N\NC(=S)N1CC2CCC(CC2)C1)c1ccncn1`, in assay [1] (at 26 µM (top of the series)), the activity change, negative = inhibition was -1.33% (inactive). `C[C@@H]1CCCCO[C@H](CN(C)S(=O)(=O)c2ccccc2)[C@@H](C)CN([C@@H](C)CO)C(=O)c2cc(N(C)C)ccc2O1`: in assay [1] (at 26 µM (top of the series)), the activity change, negative = inhibition is -2.27% (inactive). In the case of `CCc1ccc(/C=C/C(=O)C2C(=O)c3ccccc3C2=O)cc1`, the activity change, negative = inhibition in assay [1] (at 26 µM (top of the series)) is 28.8% (inactive). As for `CCn1c2ccccc2c2cc(/C=N/n3cnnc3)ccc21`, the activity change, negative = inhibition in assay [1] (at 26 µM (top of the series)) is 30.3% (inactive).

On to `C[C@@H]1CN([C@@H](C)CO)C(=O)c2cccc(NC(=O)Nc3cccc4ccccc34)c2O[C@H]1CN(C)C(=O)Nc1ccc(C(F)(F)F)cc1`, for which the activity change, negative = inhibition in assay [1] (at 26 µM (top of the series)) is 26.9% (inactive). Same read-out and setting: the figure for `C/C(=N\NC(=S)Nc1cccc(C)c1)c1ccccn1` is 74.3% (inactive). As to `c1ccc(-c2cn3c4c(sc3n2)CCCC4)cc1`, the activity change, negative = inhibition in assay [1] (at 26 µM (top of the series)) is 6.83% (inactive). With `Oc1cccc(C(Nc2nccs2)c2ccc3cccnc3c2O)c1` (stereo not given), in assay [1] (at 26 µM (top of the series)), the activity change, negative = inhibition was 23.7% (inactive). Turning to `S=C(NCc1ccccn1)N/N=C/c1ccccn1`, the AC35 in assay [2] was 5.41 µM. On the same count and under the same terms, the figure for `COc1ccccc1[C@]1(C)ON(c2ccccc2C(F)(F)F)C1=O` is 7.88 µM. As to `C[C@@H]1CCCCO[C@H](CN(C)CC2CCCCC2)[C@H](C)CN([C@@H](C)CO)C(=O)c2cc(NC(=O)NC3CCCCC3)ccc2O1`, the activity change, negative = inhibition in assay [1] (at 26 µM (top of the series)) is -3.54% (inactive). For the compound `O=C(Nc1cc(C(F)(F)F)cc(C(F)(F)F)c1)Nc1cnn(-c2ccc([N+](=O)[O-])cc2)c1C(F)(F)F`, in assay [2], the AC35 was 40.7 µM. Take `C/C(=N\NC(=S)N1CCN(C2CCCCCC2)CC1)c1ccccn1`: the activity change, negative = inhibition in assay [1] (at 12 µM (top of the series)) is 33.5% (inactive). As to `S=C(N/N=C(\c1ccccc1)c1ccccn1)N(Cc1ccccn1)Cc1ccccn1`, the AC35 in assay [2] was 6 µM.

In the case of `Cc1ccc(S(=O)(=O)NC(CC(C)C)C(=O)NCC(c2ccco2)N2CCCCC2)cc1` (stereo not given), in assay [1] (at 26 µM (top of the series)), the activity change, negative = inhibition is -1.92% (inactive). Take `C[C@@H]1CN([C@@H](C)CO)C(=O)c2cc(NC(=O)Nc3ccc(C(F)(F)F)cc3)ccc2O[C@@H](C)CCCCO[C@H]1CN(C)Cc1ccc(C(F)(F)F)cc1`: in assay [1] (at 26 µM (top of the series)), the activity change, negative = inhibition is 24% (inactive).

Take `C/C(=N\NC(=S)N1CCC1)c1ccccn1`: in assay [2], the AC35 was 1.33 µM. Consider `COc1ccc(-c2csc3ncnc(NCCN4CCOCC4)c23)cc1`, for which the activity change, negative = inhibition in assay [1] (at 26 µM (top of the series)) is 9.04% (inactive). For the compound `CCc1sc(C(=O)Nc2ncccc2O)cc1C`, in assay [2], the AC35 was 20.8 µM. As for `Cc1c(NC(=O)c2cccc(NC(=O)COc3ccccc3C#N)c2)c(=O)n(-c2ccccc2)n1C`, in assay [1] (at 26 µM (top of the series)), the activity change, negative = inhibition was 47.5% (inactive).

`CC1=C(C(=O)OCc2ccc3c(c2)OCO3)C(c2ccc(F)cc2)NC(=O)N1` (stereo not given): the activity change, negative = inhibition in assay [1] (at 26 µM (top of the series)) is -13.4% (inactive). For `COc1ccc(C(=O)Nc2ccc3[nH]ccc3c2)cc1`, the activity change, negative = inhibition in assay [1] (at 26 µM (top of the series)) is 13.6% (inactive). Still for that read-out and setting: then `COc1ccccc1NC(=S)N/N=C(\C)c1ccccn1`, with -20.4% (inactive).

Take `C/C(=N\NC(=S)N1CCN(c2ccccn2)CC1)c1ccccn1`: in assay [2], the AC35 was 10.5 µM. In the case of `O=c1[nH]c(Nc2nc3ccccc3o2)nc2c1CCCC2`, the activity change, negative = inhibition in assay [1] (at 26 µM (top of the series)) was 2.84% (inactive).

On to `C/C=C/C/C=C/CCC(=O)[C@H]1O[C@H]1C(N)=O`, for which the AC35 in assay [2] was 13.2 µM. Same read-out and setting: the figure for `COCCCNC(=O)C(C)Sc1nnc2c3cc(C)ccc3n(Cc3ccccc3F)c2n1` (stereo not given) is 25.8 µM. As to `CSc1nc(-c2ccc(C)cc2)nc(C(Cl)Cl)n1`, in assay [1] (at 26 µM (top of the series)), the activity change, negative = inhibition is 12% (inactive). Take `C=C1C[C@]23C[C@@]1(O)CC[C@H]2[C@@]12C=C[C@H](O)[C@@](C)(C(=O)O1)[C@H]2[C@@H]3C(=O)O`: the activity change, negative = inhibition in assay [1] (at 15 µM (top of the series)) was -4.73% (inactive).

As for `C[C@@H]1CN([C@@H](C)CO)C(=O)c2cc(NC(=O)Nc3ccc4c(c3)OCO4)ccc2O[C@H]1CN(C)CC1CCCCC1`, in assay [2], the AC35 is 0.738 µM.

For the compound `COc1cccc(/C=N/Nc2ncnc3c2ncn3Cc2ccccc2)c1O`, the AC35 in assay [2] was 43.4 µM.

`O=c1[nH]c(=O)n([C@H]2C[C@H](O)[C@@H](CO)O2)cc1C(F)(F)F`: in assay [2], the AC35 is 8.74 µM. For the compound `COc1ccc(-c2cc3nc4n(c(=O)c3s2)CCC4)cc1`, the activity change, negative = inhibition in assay [1] (at 26 µM (top of the series)) was 20.7% (inactive). Still for that read-out and setting: the figure for `C[C@H](CO)N1C[C@H](C)[C@@H](CN(C)CC2CCCCC2)OCCCC[C@H](C)Oc2ccc(NC(=O)Nc3cccc4ccccc34)cc2C1=O` is 23.2% (inactive). Take `CCN1CCN(C(c2cccnc2)c2cc(Cl)c3cccnc3c2O)CC1` (stereo not given): the AC35 in assay [2] is 7.4 µM. Still for that read-out and setting: then `O=C1/C(=C/c2ccncc2)SC(=S)N1Cc1ccccc1`, with 29 µM; and `CCCSc1nnc2c3ccccc3n(Cc3ccccc3)c2n1`, with 3.4 µM.
